Assay [1] deals with Serine/threonine-protein phosphatase (Homo sapiens, UniProt Q9BPW0). Briefly: Counterscreen for inhibitors of PP1: fluorescence-based biochemical high throughput dose response assay to identify inhibitors of Protein Phosphatase 5 (PP5). [Related pubchem assays: 2034 (Summary (PP5 inhibitors)), 1987 (PP5 inhibitors in singlate), 2235 (PP1 inhibitors in singlate)]. Background: The purpose of a counterscreen is to sort out artefacts and off-target activity.

Assay [2] concerns the target Serine/threonine-protein phosphatase PP1-alpha catalytic subunit (Homo sapiens, UniProt P62136). Briefly: PP1 phosphatase inhibitors, dose response, biochemical, fluorescence (AID 2403).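 Further: phosphatase turnover of OMFP into fluorescent 3-O-methylfluorescein.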
The target in assay [3] is T1, Microphthalmia-associated transcription factor (Homo sapiens, UniProt O75030).
T1 sequence (O75030 whole entry): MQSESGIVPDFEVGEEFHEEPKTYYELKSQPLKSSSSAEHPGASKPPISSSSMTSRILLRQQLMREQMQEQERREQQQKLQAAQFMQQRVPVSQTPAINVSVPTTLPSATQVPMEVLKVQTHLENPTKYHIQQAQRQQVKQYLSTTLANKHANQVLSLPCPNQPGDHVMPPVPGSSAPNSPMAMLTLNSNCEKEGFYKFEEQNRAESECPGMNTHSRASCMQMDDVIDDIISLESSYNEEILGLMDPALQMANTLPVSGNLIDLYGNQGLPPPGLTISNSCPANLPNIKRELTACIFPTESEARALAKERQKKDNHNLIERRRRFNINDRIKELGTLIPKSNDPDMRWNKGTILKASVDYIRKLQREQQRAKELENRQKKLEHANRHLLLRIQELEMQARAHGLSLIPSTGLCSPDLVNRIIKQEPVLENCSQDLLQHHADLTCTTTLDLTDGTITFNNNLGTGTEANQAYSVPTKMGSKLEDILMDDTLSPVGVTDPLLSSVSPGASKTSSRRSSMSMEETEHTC
In words: TRPM1 promoter luciferase signal decrease, dose response, MITF inhibitor project, cell-based, SK-MEL-5, cherry-picked, set 3 (AID 493073).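 Further: SK-MEL-5 melanoma cells with luciferase driven by the MITF target TRPM1 promoter.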 In kind it is functional.

The nature of assay [4]: enhancers of respiration in Yfh1-depleted yeast, dose response, Friedreich's ataxia, plus single-dose screen (AID 1465).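 Further: yeast depleted of Yfh1p frataxin homolog grown on glycerol needing respiration; WST-1 tetrazolium dye reduction as measure of cellular dehydrogenase metabolic activity.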 It counts as functional.
In assay [5] the target is T2, Heat shock factor protein 1 (Mus musculus, UniProt P38532).
T2 sequence (P38532 whole entry): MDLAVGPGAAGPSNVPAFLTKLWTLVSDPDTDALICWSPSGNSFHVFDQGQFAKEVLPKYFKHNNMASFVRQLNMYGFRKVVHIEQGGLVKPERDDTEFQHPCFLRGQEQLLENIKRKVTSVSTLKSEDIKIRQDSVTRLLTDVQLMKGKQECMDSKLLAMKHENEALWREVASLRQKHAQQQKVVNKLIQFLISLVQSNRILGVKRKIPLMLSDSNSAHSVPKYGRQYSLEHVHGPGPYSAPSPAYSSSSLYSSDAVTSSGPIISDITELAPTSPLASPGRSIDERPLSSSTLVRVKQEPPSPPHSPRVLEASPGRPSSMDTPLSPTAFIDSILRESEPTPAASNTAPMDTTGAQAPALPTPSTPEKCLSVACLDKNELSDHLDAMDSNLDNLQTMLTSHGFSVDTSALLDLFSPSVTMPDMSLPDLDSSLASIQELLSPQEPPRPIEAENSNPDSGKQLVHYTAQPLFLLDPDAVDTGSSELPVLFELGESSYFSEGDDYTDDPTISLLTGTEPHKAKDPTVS
Briefly: HSF1 potentiators in luciferase reporter cells, confirmation, cell-based, NIH3T3, luminescence, dose retest (AID 435004).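 Further: stress induced by proteasome inhibitor MG132 added 30 min after compound; luciferase reporter driven by HSF1 response element in NIH3T3 cells; actives raise luminescence as potentiators of the MG132 stress response.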 It counts as functional. A general note: Reporter assays use an easily measured gene product as a stand-in for the process of interest.

Assay [6] addresses Neuropeptide Y receptor type 2 (Homo sapiens, UniProt P49146). Briefly: Fluorescence-based counterscreen for agonists of NPY-Y1: cell-based high-throughput dose response assay for agonists of NPY-Y2. It counts as functional.
Assay [7] addresses Neuropeptide Y receptor type 1 (Homo sapiens, UniProt P25929). Briefly: Fluorescence-based dose response cell-based high-throughput screening assay for agonists of NPY-Y1. [Related pubchem assays: 1697 (Screening assay (NPY-Y1 agonists).), 1359 (Screening assay (NPY-Y2 potentiators or agonists).), 1304 (Screening assay (NPY-Y1 potentiators or agonists).), 1704 (Screening assay (CNGC inhibitors).), 1791 (Summary AID.)]. It counts as functional.

The test system of a further assay is HEK293. Briefly: Fluorescence-based counterscreen for potentiators or agonists of NPY-Y1: cell-based high-throughput dose response assay for inhibitors of cyclic nucleotide gated ion channel (CNGC) activity. In this assay, the parental HEK293 cell line transfected with a cyclic-nucleotide gated ion channel (CNGC)-based cAMP sensor is used to measure inhibition of isoproterenol-induced CNGC …. In kind it is functional. The note with it: Homo sapiens.

Molecules are shown by their SMILES. The source made the active and inactive calls.

Chain of Serine/threonine-protein phosphatase PP1-alpha catalytic subunit (P62136 whole entry): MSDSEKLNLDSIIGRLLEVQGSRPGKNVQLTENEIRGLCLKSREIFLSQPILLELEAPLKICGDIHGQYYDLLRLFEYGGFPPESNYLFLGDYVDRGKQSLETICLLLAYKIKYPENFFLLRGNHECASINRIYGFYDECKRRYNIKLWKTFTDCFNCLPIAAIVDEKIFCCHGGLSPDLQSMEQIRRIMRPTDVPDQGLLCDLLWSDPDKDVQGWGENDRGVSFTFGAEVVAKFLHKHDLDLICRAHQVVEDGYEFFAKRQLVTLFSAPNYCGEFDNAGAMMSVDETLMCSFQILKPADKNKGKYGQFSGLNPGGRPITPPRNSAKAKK
Chain of Neuropeptide Y receptor type 2 (P49146 whole entry): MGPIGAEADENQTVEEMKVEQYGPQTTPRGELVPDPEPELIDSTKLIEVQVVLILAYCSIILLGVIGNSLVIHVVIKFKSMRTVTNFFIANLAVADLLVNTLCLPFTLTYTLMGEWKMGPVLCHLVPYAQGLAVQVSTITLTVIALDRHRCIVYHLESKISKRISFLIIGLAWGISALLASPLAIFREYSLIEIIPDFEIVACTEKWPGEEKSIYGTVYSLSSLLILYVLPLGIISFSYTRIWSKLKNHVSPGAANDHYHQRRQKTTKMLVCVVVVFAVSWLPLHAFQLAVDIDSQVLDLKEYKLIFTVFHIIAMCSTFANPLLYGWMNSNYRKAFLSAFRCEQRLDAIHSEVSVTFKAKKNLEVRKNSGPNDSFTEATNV
Chain of Neuropeptide Y receptor type 1 (P25929 whole entry): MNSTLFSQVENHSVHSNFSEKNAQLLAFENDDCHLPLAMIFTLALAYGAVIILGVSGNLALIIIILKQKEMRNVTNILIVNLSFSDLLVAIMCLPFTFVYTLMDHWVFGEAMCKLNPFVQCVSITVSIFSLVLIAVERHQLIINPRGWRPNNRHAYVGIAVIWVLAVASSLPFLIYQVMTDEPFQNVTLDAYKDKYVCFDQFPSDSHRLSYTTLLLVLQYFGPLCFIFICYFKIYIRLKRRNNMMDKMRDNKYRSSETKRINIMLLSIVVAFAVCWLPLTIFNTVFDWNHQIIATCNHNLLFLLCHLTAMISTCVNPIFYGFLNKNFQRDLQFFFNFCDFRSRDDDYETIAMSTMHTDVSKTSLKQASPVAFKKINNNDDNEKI
Chain of Serine/threonine-protein phosphatase (Q9BPW0 whole entry): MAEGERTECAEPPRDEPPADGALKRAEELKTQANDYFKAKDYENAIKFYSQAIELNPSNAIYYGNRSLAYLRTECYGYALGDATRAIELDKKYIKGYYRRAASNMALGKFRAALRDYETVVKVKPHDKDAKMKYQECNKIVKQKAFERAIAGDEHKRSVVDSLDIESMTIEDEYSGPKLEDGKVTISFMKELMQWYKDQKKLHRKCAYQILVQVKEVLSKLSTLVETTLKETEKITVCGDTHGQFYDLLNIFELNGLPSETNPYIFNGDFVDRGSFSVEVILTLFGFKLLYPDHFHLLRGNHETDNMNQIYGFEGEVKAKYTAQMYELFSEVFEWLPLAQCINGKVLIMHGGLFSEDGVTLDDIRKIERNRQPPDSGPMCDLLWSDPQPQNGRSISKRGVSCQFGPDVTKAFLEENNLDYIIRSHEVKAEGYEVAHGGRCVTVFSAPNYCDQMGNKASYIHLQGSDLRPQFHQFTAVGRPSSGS

By IC50 is commonly meant the point on the concentration scale where inhibition reaches its midpoint. As for `COc1cnc(-c2ccccn2)nc1Sc1ccc(F)cc1`, the IC50 in assay [1] was > 67 µM (not active); in assay [2], 7.21 µM (active).
One may read the AC50 as the midpoint of the concentration-response curve, whichever way the signal moves. One may read the EC50 as the concentration that produces a half-maximal response. Consider `CC1=C(C#N)C(=O)N(CCO)C(=O)/C1=N/Nc1ccc2c(c1)COC2=O`, for which the AC50 in assay [3] was 9.69 µM (active). For the same molecule, the EC50 in assay [4] is > 100 µM (active); in assay [5], 9.38 µM (active).
For the molecule `CN(C)Cc1c(O)ccc2oc(Cc3ccccc3)cc12`, the half-maximal effective concentration (EC50) in assay [6] is listed as > 35.4 µM (not active); in assay [7], 14.7 µM (not active). For the same molecule, in the assay with HEK293, the IC50 is on record as > 35.4 µM (not active).

Values taken from ChEMBL document CHEMBL1201862, “PubChem BioAssay data set” (2004).
